Converted amounts (≈) assume the structure as drawn. “Also recorded” adds a separate entry of the source. Read-outs that look alike come from different tables or passages of the source.

Assay [1] has as its target T1, dihydropteroate synthase (DHPS) (Escherichia coli, UniProt P0AC13).
T1 construct: made in house; host or cells: E. coli BL21 (given for HPPK; the other enzymes 'in the same manner')
Put plainly: HPPK/DHPS/DHFR steady state kinetics inhibition assay (NADPH consumption, absorbance at 340 nm). It is filed as biochemical, E. coli.
Protocol: (§1) DHFR would only reduce dihydropteroic acid, not 6-hydroxymethyl-7,8-dihydropterin, and as long as the DHFR rate was not slower than the DHPS rate, then the rate limiting step of DHPS is represented by the decrease in absorbance at 340 nm overtime.
(§2) HPPK, DHPS, DHFR and all their associated cosubstrates (ATP, PABA, NADPH) were combined in suitable buffer conditions (pH=7.5) and the optical absorbance at 340 nm was measured over time (see e.g., FIG. 21A).
HPPK/DHPS/DHFR Steady State Kinetics Inhibition
Stock solutions of all reagents were made using 100 mM Tris-buffer (pH=7.5) and stored in fractions in a −80° C. freezer until use (see e.g., TABLE 6).
An assay stock solution containing everything except the HPPK/DHPS/DHFR solution and the Tris buffer+Inhibitor was made and 88.5 μL was distributed to each well (in triplicate) of a quartz 96-well plate to be used. […] 7.5 μL of the enzyme solution containing HPPK/DHPS/DHFR was added to each well and the plate was put into a UV/Vis plate reader and incubated at 37° C. while the optical absorbance at 340 nm was read every 10 s for 1 h. The apparent reaction 1-9 rate for absorbance decrease was measured from between 0-5 min.

Assay [2] addresses T1, dihydropteroate synthase (DHPS). Nature of the assay: HPPK/DHPS/DHFR steady state kinetics with PABA or 3-HβL as DHPS substrate. Format: biochemical, E. coli.
Protocol: as §1, §2
HPPK/DHPS/DHFR Steady State Kinetics
Stock solutions of all reagents were made using 100 mM Tris buffer (pH=7.5) and stored in fractions in a −80° C. freezer until use (see e.g., TABLE 5).
An assay stock solution containing everything except the enzymes was made and 142.5 μL was distributed to each well (6 total) on a quartz 96-well plate that had been flushed with argon. To each of the first three wells was then added 7.5 μL of the enzyme solution containing HPPK/DHPS/DHFR, and to each of the last 3 wells was added 7.5 μL of 100 mM Tris-buffer. The 96-well plate was put into a UV/Vis plate reader and incubated at 37° C. while the optical absorbance at nm was read every 10 s for 1 h. The apparent reaction rate for absorbance decrease was measured from between 0-5 min. Each well was combined with their triplicate partners and the solutions were centrifuge filtered through a molecular weight cutoff (MWCO) to remove any enzymes. The solutions then run on an LCMS with single ion monitoring methods to detect the various oxidation states of products.
HPPK/DHPS/DHFR Steady State Kinetics with a 3-HG3L as a Substrate Stock solutions of all reagents were made using 100 mM Tris buffer (pH=7.5) and stored in fractions in a −80° C. freezer until use (see e.g., TABLE 7).
An assay stock solution containing everything except the enzymes was made and 142.5 μL was distributed to each well (6 total) on a quartz 96-well plate that had been flushed with argon. To each of the first three wells was then added 7.5 μL of the enzyme solution containing HPPK/DHPS/DHFR, and to each of the last 3 wells was added 7.5 μL of 100 mM Tris-buffer. The 96-well plate was put into a UV/Vis plate reader and incubated at 37° C. while the optical absorbance at nm was read every 10 s for 1 h. The apparent reaction rate for absorbance decrease was measured from between 0-5 min. Each well was combined with 1-0 their triplicate partners and the solutions were centrifuge filtered through a molecular weight cutoff (MWCO) to remove any enzymes. The solutions then run on an LCMS with single ion monitoring methods to detect the various oxidation states of products.
In assay [3] the target is T2, dihydrofolate synthetase (DHFS) (Escherichia coli, UniProt P08192).
T2 construct: made in house; host or cells: E. coli BL21 (given for HPPK; the other enzymes 'in the same manner')
Put plainly: DHFS steady state kinetics inhibition assay (PK/LDH coupled, absorbance at 340 nm, LCMS of product). To be noted: for DHFS product detected by LCMS of the reaction mixtures: higher inhibitor concentrations, FIG. 38A-38B. Format: biochemical, E. coli. The source says: With a suitable DHFS substrate in hand (THFA), conditions to measure the rate of DHFS action were investigated. […] Given none of the substrates or cofactors of DHFS (see e.g., FIG. 19) would be suitable for absorbance change detection, a coupled enzyme reaction with pyruvate kinase/lactate dehydrogenase (PK/LDH) was chosen. In the presence of ADP (in this case produced by DHFS), PK would convert phosphoenolpyruvate (PEP) to pyruvate, reforming ATP in the process (see e.g., FIG. 20A). The pyruvate would then be reduced by LDH in a NADH dependent manner (see e.g., FIG. 20B). The oxidation of NADH to NAD^+ would cause a decrease in absorbance at 340 nm, which can be measured as a rate of DHFS activity as long as the PK/LDH process was not the rate limiting step of the pathway from THFA to NAD^+.
THFA and its associated cofactors (L-Glu, ATP) were dissolved in degassed buffer solution (pH=7.5) to reconstitute DHFS activity with coupling to PK/LDH activity in the presence of excess cosubstrates (PEP, NADH) (see e.g., FIG. 24A). The optical absorbance at 340 nm was measured over time and a steady-state approximation of DHFS rate (7.18 E-5 abs/s) was determined (see e.g., FIG. 24B). Once the reaction had progressed for 20 minutes, 1 M HCl was added to quench the reaction and KCl+MeOH was added to agglutinate the protein and solubilize the pterin-containing metabolites. The vials were heated for 1 h at 70° C. and centrifuged to remove precipitated enzymes. The supernatant solution was spiked with a fixed concentration of Fmoc-alanine as an internal standard for LCMS analysis.
DHFS Steady State Kinetics Inhibition Assay
Stock solutions of all reagents were made using 100 mM Tris-buffer (pH=7.5) an stored in fractions in a −80° C. freezer until use. 1500 μL of a stock solution containing everything (in appropriate amounts to maintain the final concentration calculations for 150 total μL well volume) in the table above except the DHFS and the Tris Buffer+inhibitor was made. Solutions of the Tris Buffer+inhibitor were made so as to achieve final inhibitor concentrations as below. The final concentrations of inhibitor can be adjusted as necessary.
Each necessary well of a quartz 96-well plate was flushed with argon then filled (in triplicate) with 69.75 μL of stock solution and 75.75 μL of Tris Buffer+Inhibitor solution. The quartz plate was incubated at 37° C. for 10 minutes then 4.5 μL of DHFS stock solution was quickly added to each well except well 6, to which 4.5 μL of Tris-buffer was added. The quartz plate was put in a plate reader at 37° C. and the optical absorbance at 340 nm was read every 10 seconds for 20 min. The apparent reaction rate for absorbance decrease was measured from between 0-5 min. Each well was combined with their triplicate partners and the solutions were centrifuge filtered through a molecular weight cutoff (MWCO) to remove any enzymes. The solutions were spiked with enough Fmoc-ala to bring the final concentration to 50 μM (moc-ala then run on an LCMS with single ion monitoring methods to detect the various oxidation states of THEA and Glu-THFA.
An alternative method is as follows: After the 20-minute optical absorbance reading, the triplicate solutions were combined then diluted with 200 μL MeOH and an amount of KCl in H2O to bring the final concentration of KCl to 20 mM. The solutions were then incubated at 70° C. for 1 h. […]

For a further assay, the system named is E. coli ATC 25922. Put plainly: Agar diffusion antibacterial susceptibility assay. To be noted: for zone of inhibition at 3520 µg/mL / zone of inhibition at 15000 µg/mL: Escherichia coli; for zone of inhibition at 15000 µg/mL: 15 mg/mL in DMSO. Format: cell-based. The protocol: Inhibitor 4.10 was also used alongside sulfamethoxazole and trimethoprim and in combination with sulfamethoxazole and trimethoprim respectively, in an agar diffusion antibacterial susceptibility assay (see e.g., FIG. 41 and TABLE 11).
An overnight culture of E. coli ATC 25922 was grown in 5 mL of LB broth. 22 g of Mueller Hinton II broth powder and 15 g of agar were dissolved in 1 L of dd-H2O and autoclaved. The MH II agar broth was cooled to 47° C. and 35 mL of MH II agar broth was inoculated with 100 μL of OD600=0.1 E. coli from the overnight culture. The inoculated agar was plated and once cool enough, 10 wells were cut out using a vacuum. Each well was filled with 50 μL DMSO solutions as below and the plates were left in an incubator at 37° C. for 18 h. The zones of inhibition were measured for each well.

The subject of a further assay is E. coli. Nature of the assay: Whole cell antibacterial susceptibility test, bacterial growth curves in 96-well plate. It is filed as cell-based. The protocol:
Bacterial growth curves were determined for E. coli using two compounds—inhibitor 4.10 and trimethoprim (positive control). A 96-well plate format was used to achieve serial dilution of the test compounds and included a DMSO control to simulate the concentration of DMSO required to solubilize the test compounds in the growth medium (not shown).

A further assay deals with T3, DHFS (Escherichia coli, UniProt P08192).
T3 construct: made in house; host or cells: E. coli BL21 (given for HPPK; the other enzymes 'in the same manner')
Nature of the assay: Protein mass spectrometry of DHFS incubated with inhibitor (covalent adduct search). Further details: species or system E. coli. To be noted: 0, 40, 400 μM inhibitor, 20 μM DHFS, 37° C., 1 hour. The text has this:
If DHFS is indeed phosphorylating the 3-hydroxyl group of the 3-HβL warhead, then why was it not detected by LCMS analysis? The possibility was considered that the higher concentrations of compound 4.10 resulting in 100% DHFS inhibition might be consistent with covalent modification of the enzyme by the inhibitor. This could happen by a variety of different mechanisms including the canonical β-lactam suicide inhibition mechanism through acylation of nucleophilic amino acid side chains. However, there is a potentially novel mechanism at play when considering the reactivity of an activated benzylic position of para-aniline derivatives. The presence of a leaving group at the benzylic position of para-anilines results in the formation of reactive quinone-imine-methide species. If the 3-hydroxy group of inhibitor 4.10 is phosphorylated in the DHFS active site, it could serve as a leaving group leading to spontaneous formation of a quinone-imine-methide that might react with nearby amino acid side chains. This transformation could also take place within the mass spec, making detection of the phosphorylated inhibitor impossible (see e.g., FIG. 39). […] The LCMS samples were also analyzed for the presence of a reaction product between the 3-HβL and L-Glu, but no masses which could match this description were found. […]

The mark [4] stands for this setting: ATC25922, 3.52 mg/mL in DMSO, 50 μL per well, 37° C., 18 h, read-out: Zone of Inhibition.
Where [5] appears, read: ATC25922, 50 μL per well, 37° C., 18 h.

T2 sequence (P08192 whole entry): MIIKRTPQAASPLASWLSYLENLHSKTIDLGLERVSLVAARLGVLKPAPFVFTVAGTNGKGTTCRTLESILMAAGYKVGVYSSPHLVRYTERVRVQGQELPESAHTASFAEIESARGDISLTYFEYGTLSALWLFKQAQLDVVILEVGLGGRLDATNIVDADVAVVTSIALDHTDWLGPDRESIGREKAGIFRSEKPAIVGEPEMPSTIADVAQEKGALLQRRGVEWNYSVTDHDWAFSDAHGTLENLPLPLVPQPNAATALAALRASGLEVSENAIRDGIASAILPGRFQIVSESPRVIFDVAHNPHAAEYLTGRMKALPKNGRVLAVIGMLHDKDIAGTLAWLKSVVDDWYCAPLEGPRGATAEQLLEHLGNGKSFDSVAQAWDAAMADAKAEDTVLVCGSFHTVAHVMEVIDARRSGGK
T1 sequence (P0AC13 whole entry): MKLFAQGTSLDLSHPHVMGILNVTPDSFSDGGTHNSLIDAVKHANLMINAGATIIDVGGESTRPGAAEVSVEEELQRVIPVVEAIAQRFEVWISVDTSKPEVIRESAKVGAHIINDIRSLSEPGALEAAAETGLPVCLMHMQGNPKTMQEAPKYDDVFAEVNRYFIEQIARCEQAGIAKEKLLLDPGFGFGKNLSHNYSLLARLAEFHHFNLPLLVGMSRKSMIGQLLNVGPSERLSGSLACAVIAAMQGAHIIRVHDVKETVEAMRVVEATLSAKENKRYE
T3 sequence (P08192 whole entry): as the sequence (P08192 whole entry) above

As for `Nc1ccc(C2(O)CNC2=O)cc1` (stereo not shown) [Compound 2.44, 3-(4-aminophenyl)-3-hydroxyazetidin-2-one], the “Inhibition of DHPS (in words)” value in assay [1] is reported as “not an inhibitor of DHPS”. In addition, the “Substrate of DHPS, rate as substrate (in words)” value in assay [2] is “substrate of DHPS”; in assay [2] (listed as 3-(para-NH2-phenyl)-3-HβL), “substrate”; in assay [2] (listed as BVD-3-7), “slower”.

For `Nc1ncc(CNc2ccc(C3(O)CNC3=O)cc2)c(N)n1` (stereo not shown) [Compound 4.6, 3-(4-(((2,4-diaminopyrimidin-5-yl)methyl)amino)phenyl)-3-hydroxyazetidin-2-one], the “Dose-dependent inhibition of DHFS (in words)” value in assay [3] is “no apparent dose dependent inhibition of DHFS”.

For orientation: zone of inhibition means the size of the clear area around the sample on an inoculated plate. As to `Nc1nc(N)c2nc(CNc3ccc(C4(O)CNC4=O)cc3)cnc2n1` (stereo not shown) [Compound 4.10, 3-(4-(((2,4-diaminopteridin-6-yl)methyl)amino)phenyl)-3-hydroxyazetidin-2-one], in the assay with E. coli ATC 25922 (E. coli), the “Bacterial growth inhibition in agar diffusion (in words)” value (from here on “Bacterial growth inhibition”) is “no bacterial growth inhibition was observed; also recorded: no apparent effect on E. coli growth” and the “Synergistic effect in combination with sulfamethoxazole or trimethoprim (in words)” value was “No apparent synergistic effect”. Besides, the zone of inhibition at 3520 µg/mL with E. coli ATC 25922 (ATC25922, 18 h) amounted to 0 mm. In addition, the “Inhibition of bacterial growth (in words)” value with E. coli (serial dilution, compared with DMSO control) is “No significant inhibition of bacterial growth”. In assay [3], the “Dose-dependent inhibition of DHFS (in words)” value is reported as “dose-dependent inhibitory response” and the “DHFS product detected by LCMS of the reaction mixtures” value is reported as “no product detected”. Besides, in assay [3] (at higher (double digit micromolar) concentrations), the DHFS rate inhibition is listed as approximately 100%. Besides, the “3-HβL-DHFS covalent adducts by protein mass spectrometry (in words)” value on DHFS is “no apparent peaks corresponding to DHFS+334 mass units; also recorded: no 3-HβL—DHFS adducts formed”.

For the molecule `NCC(O)(C(=O)O)c1ccc(NCc2cnc3nc(N)nc(N)c3n2)cc1` (stereo not shown) [Compound 4.12, 3-amino-2-(4-(((2,4-diaminopteridin-6-yl)methyl)amino)phenyl)-2-hydroxypropanoic acid], the “DHFS product detected by LCMS of the reaction mixtures” value in assay [3] is listed as “still showed some product”.

For `Nc1ccc(C(=O)O)cc1` [PABA, p-amino-benzoic acid, reference compound], in assay [2], the “Substrate of DHPS, rate as substrate (in words)” value is recorded as “faster”.

As for `Cc1cc(NS(=O)(=O)c2ccc(N)cc2)no1` [sulfamethoxazole], the “Bacterial growth inhibition” value in the assay with E. coli ATC 25922 (E. coli) is recorded as “clear zones of bacterial growth inhibition”. Besides, in the assay on E. coli ATC 25922 (setting [4]), the zone of inhibition at 3520 µg/mL stood at 23.2 mm. Also, the zone of inhibition at 15000 µg/mL with E. coli ATC 25922 (setting [5]) came to 25.9 mm.

Turning to `COc1cc(Cc2cnc(N)nc2N)cc(OC)c1OC` [trimethoprim], in the assay with E. coli ATC 25922 (E. coli), the “Bacterial growth inhibition” value was “clear zones of bacterial growth inhibition”. Moreover, the zone of inhibition at 3520 µg/mL in the assay with E. coli ATC 25922 (setting [4]) turned out to be 39.6 mm. The zone of inhibition at 15000 µg/mL in the assay on E. coli ATC 25922 (setting [5]) came to 45.3 mm. Besides, the MIC with E. coli (Escherichia coli, read-out: MIC (minimum inhibitory concentration)) stood at 2 µM (≈ 0.581 µg/mL).

The record behind these values is patent US12421187B2, “Dihydrofolate synthase (DHFS) inhibiting agents and methods of making and using same” (Washington Univeristy, priority 2022, dated 2025).
